In series [1] the test system is Male Sprague-Dawley rats. Nature of the series: Rotorod performance in rats. Particulars: ratio of lowest effective anxiolytic dose (situational anxiety) and lowest effective dose producing side effects in rotorod, PO. The procedure: Rotorod Performance in Rats
Male Sprague-Dawley rats, weighing 180-200 grams at the beginning of the experiment were purchased from Charles River Laboratories (Wilmington, Mass.). The animals were housed in groups of four in a colony room maintained at constant temperature (21±2° C.) and humidity (50±10%). The room was illuminated 12 hours per day (lights on at 0600 h). The rats had ad libitum access to food and water. The degree of muscle coordination or balance (i.e., ataxia) was determined using a standard accelerating rotorod treadmill (Ugo Basile, Comerio-Varese, Italy or Columbus Instruments, Columbus, Ohio) that was 6 cm in diameter, 24 cm above the base, and run from an initial speed of 2 rpm to a maximum speed of 20 rpm. The time each animal remained on the rotating rod was automatically recorded, up to a maximum of 5 minutes.
(§1) Drug Administration: All drugs were administered PO 20-60 minutes before behavioral testing.
(§2) Data Analysis: Results were expressed as the mean±1 SEM. All data were subjected to analysis of variance (ANOVA) followed by individual mean comparisons using Fisher's Least Significant Difference Test (Kirk, 1968) where appropriate. The significance level was set at p<0.05.
The time on the rod for each rat was recorded. Compounds producing ataxia (motor incoordination) decrease the time spent on the rod compared with vehicle-treated animals.
Background: In the rotarod test animals must keep their balance on a rotating rod.

The test system of the next series is Male CF1 mice. The experiment in a line: Protection from pentylenetetrazole-induced seizures. The format is in vivo, mouse. Particulars: PO 60 min before pentylenetetrazole 125 mg/kg s.c. The procedure: Protection from Pentylenetetrazole-Induced Seizures
Male CF1 mice weighing 20-22 g at the time of the experiment were purchased from Charles River Laboratories (Wilmington, Mass.). Pentylenetetrazole (Sigma Chemical Co.) was administered at 125 mg/kg s.c. The number of animals surviving was recorded at 30 minutes and 60 minutes after administration of pentylenetetrazole.
Drug Administration: All drugs were administered PO 60 minutes before administration of pentyenetetrazole.
Data Analysis: The data are presented as the percent of animals protected from death. The data were analyzed by Chi Square statistics. The significance level was set at p<0.05.
Mice treated with certain compounds of the present invention were subjected to pentylenetetrazole (PTZ) at 125 mg/kg to induce seizures. The percent of animals protected from death within one hour of PTZ was measured.

The subject of series [2] is Male Sprague-Dawley rats. The experiment in a line: Discriminative stimulus effects of chlordiazepoxide in rats (drug discrimination). Particulars: ratio of lowest effective anxiolytic dose (situational anxiety) and lowest effective dose producing chlordiazepoxide-like effects in drug discrimination.
For series [3], the system named is Male Sprague-Dawley rats. The experiment in a line: Open-field locomotor activity in rats. Particulars: ratio of lowest effective anxiolytic dose (situational anxiety) and lowest effective dose producing side effects in locomotor activity, PO. The procedure:
Open-Field Locomotor Activity in Rats
Male Sprague-Dawley rats, weighing 250-290 grams at the beginning of the experiment were purchased from Charles River Laboratories (Wilmington, Mass.). The animals were housed in groups of four in a colony room maintained at constant temperature (21±2° C.) and humidity (50±10%). The room was illuminated 12 hours per day (lights on at 0600 h). The rats had ad libitum access to food and water. The testing apparatus consisted of Plexiglas chambers (42×42×30 cm) equipped with Digiscan activity monitors (Omnitech Electronics, Columbus, Ohio) that detect interruptions of 16 photobeams spaced 2.5 cm apart and 2.5 cm above the floor. Horizontal activity was monitored for 60 minutes.
as §1, §2
Rats were placed in an open field and the total distance covered by the rat was measured. The test duration was 60 minutes. Compounds producing sedative effects decrease the distance covered.

The test system of another series is male Wistar rats. The experiment in a line: Elevated plus-maze in rats. The format is in vivo, rat. Particulars: rats, mean, N 6; for Open Entries: SOLVENT mean 2.57; for Closed Entries: SOLVENT mean 7.14; for Total Distance Travelled (m): SOLVENT mean 9.30; for Total Entries: SOLVENT mean 9.71; for % Open Time: SOLVENT mean 20.43; for % Open Entries: SOLVENT mean 25.57; for Time in open arms: SOLVENT mean 50.29; for Time in closed arms: SOLVENT mean 196.29. The procedure:
Except where noted, the methods used were those of Miroslav M., et al., (2004) Pharmacology, Biochemistry and Behavior 79: 279-290. Experiments were carried out on male Wistar rats (Military Farm, Belgrade, Serbia and Montenegro), weighing 200-240 g. All procedures in the study conformed to EEC Directive 86/609 and were approved by the Ethical Committee on Animal Experimentation of the Medical Faculty in Belgrade. The rats were housed in transparent plastic cages, six animals per cage, and had free access to pelleted food and tap water before and after drug administration. The temperature of the animal room was 22±1° C., the relative humidity 40-70%, the illumination 120 1× and the 12/12-h light/dark period (light on at 06:00 h). All handling and testing took place during the light portion of the cycle. Throughout the study the animals were used only once.
Midazolam and flumazenil were generously donated from F. Hoffman-La Roche (Basel, Switzerland). Zolpidem was purchased from Toronto Research Chemicals (North York, Canada) and DMCM from Research Biochemicals (Natick, Mass., USA). All drugs were dissolved/suspended with the aid of sonication in a solvent containing 85% distilled water, 14% propylene glycol and 1% Tween 80™, and were administered intraperitoneally, in a volume of 1 ml/kg, 20 min before testing. Doses are expressed as the base forms of the drugs. In the cases of combined treatment, agonists were administered at separate sites, immediately after the antagonist. Each animal received a total volume of 2 ml/kg of compounds tested or appropriate vehicles, at two different injection sites.
The test apparatus was constructed of sheet metal, with a black rubber floor. It consisted of a maze elevated to a height of 50 cm with two open (50×10 cm) and two enclosed arms (50×10×40 cm), connected by junction area (central platform) measured 10×10 cm. Although the floor was rubberized, a ledge of sheet metal (0.3 cm high) surrounding the open arms was added, to avoid rats falling off. The illumination in the experimental room consisted of one red neon tube fixed on the ceiling, giving light intensity of 10 1× on the surface of the arms. The experiments were carried out during the diurnal phase (between 08:00 and 12:00 h). At the beginning of the experiment, rats were placed in the centre of the maze, facing one of the enclosed arms and observed for 5 min. The observer sat in the same room 1 m from the maze. After each trial, the maze was cleaned with dry and wet towels. Throughout the study, the number of rats per treatment group was 8-14. Each experiment was run over 4 consecutive days, with three control rats per day; as there was no difference in plus-maze activity among control subgroups, they were pooled in a single control group (n=12).
All numerical data presented in the figures were given as the mean±S.E.M. Each dose-response curve (agonist or antagonist alone or agonist+antagonist) was assessed by a one-way ANOVA. If the ANOVA was significant, each treatment condition was compared with the appropriate solvent control by a Dunnett's test (a=0.05). In case of significant effect in the number of enclosed arm entries, an analysis of covariance (ANCOVA) was performed in the anxiety-related parameters using the number of enclosed arm entries as covariate. Interactions between the agonists and antagonists were analyzed separately with a two-way ANOVA [factors: agonist dose versus cotreatment (an antagonist or saline)]; pairwise comparisons for the assessment of the antagonist influence on the agonist effects were conducted by Tukey's test, one of the methods recommended even in the absence of an overall significant F-test (Wilcox R R. New designs in analysis of variance. Annu Rev Psychol 1987; 38: 29-60). Statistical analyses were performed with commercial statistical software for PC, Stat for Windows R. 5.0.

Setting [4] is: DZP 1.25 mg/kg ip, t test p ≦ 0.05.

Each structure is given as a SMILES string. Bounds are passed on as bounds.

As for `CCOC(=O)c1ncn2c1CN=C(c1ccccc1)c1cc(Cl)ccc1-2`, the melting point – broadly, the temperature of the solid-liquid transition – was 174 to 175 °C.
Still for that read-out and setting: the figure for `CNC1=Nc2ccc(Br)cc2C(c2ccccc2)=NC1` is 234 to 235 °C; for `CNC1=Nc2ccc(C#C[Si](C)(C)C)cc2C(c2ccccc2)=NC1` it is 210 to 211 °C.
The same measure, in the same setting: the figure for `CN1C(=O)CN=C(c2ccccn2)c2cc(C#C[Si](C)(C)C)ccc21` is 194 to 195 °C; for `C#Cc1ccc2c(c1)C(c1ccccn1)=NCC(=O)N2C` it is 190 to 191 °C.
With `CCOC(=O)c1ncn2c1CN=C(c1ccccn1)c1cc(C#C[Si](C)(C)C)ccc1-2`, the melting point fell in the range of 205 to 206 °C.
On the same count and under the same terms, the result for `CCOC(=O)c1ncn2c1CN=C(c1cccs1)c1cc(C#C[Si](C)(C)C)ccc1-2` reads 124 to 127 °C; that for `CCOC(=O)c1ncn2c1C(C)N=C(c1ccccc1)c1cc(Br)ccc1-2` (stereo not drawn), 164 to 165 °C; that for `CCOC(=O)c1ncn2c1C(C)N=C(c1ccccc1)c1cc(C#C[Si](C)(C)C)ccc1-2` (stereo not drawn), 160 to 162 °C.
Same read-out and setting: the result for `CCOC(=O)c1ncn2c1C(C)N=C(c1ccccc1F)c1cc(C#C[Si](C)(C)C)ccc1-2` (stereo not drawn) reads 186 to 187 °C.
Take `CCOC(=O)c1ncn2c1C(C)N=C(c1ccccn1)c1cc(C#C[Si](C)(C)C)ccc1-2` (stereo not drawn): the melting point is 197 to 198 °C.
For `CC(C)(C)OC(=O)c1ncn2c1CN=C(c1ccccc1)c1cc(Br)ccc1-2`, the melting point was 222 to 223 °C.
The same measure, in the same setting: the result for `Cc1nnc2n1-c1ccc(C#CC(C)(C)C)cc1C(c1ccccc1Cl)=NC2` reads > 268 °C (dec.); that for `Cc1nnc2n1-c1ccc(C#CC(C)(C)C)cc1C(c1ccccc1)=NC2`, 184 to 186 °C.
On the same count and under the same terms, the figure for `O=C(OCC(F)(F)F)c1ncn2c1CN=C(c1ccccc1)c1cc(Br)ccc1-2` is 202 to 204 °C; for `O=C(OCC(Cl)(Cl)Cl)c1ncn2c1CN=C(c1ccccc1)c1cc(Br)ccc1-2` it is 113 to 116 °C.
The same measure, in the same setting: the result for `C[Si](C)(C)C#Cc1ccc2c(c1)C(c1ccccc1)=NCc1c(C(=O)OCC(F)(F)F)ncn1-2` reads 107 to 110 °C.
Regarding `CCOC(=O)c1ncn2c1CN=C(c1ccccc1)c1cc(Br)ccc1-2` [DM-i-070, Ethyl 8-bromo-6-phenyl-4H-benzo[f]imidazo[1,5-a][1,4]diazepine-3-carboxylate], in the series with Male Sprague-Dawley rats [1], the Antianxiety/ataxia is above 100. The “PTZ Seizures, effective dose” value in the series with Male CF1 mice is listed as below 100 mg/kg. Further, the Antianxiety/abuse liability in the series with Male Sprague-Dawley rats [2] worked out at 10. Moreover, the Antianxiety/sedation in the series with Male Sprague-Dawley rats [3] is recorded as above 100.
As to `CN1C(=O)CN=C(c2ccccc2)c2cc(Cl)ccc21` [Diazepam, reference compound], the “PTZ Seizures, effective dose” value in the series with Male CF1 mice is on record as below 10 mg/kg. For the same molecule, in the series with Male Sprague-Dawley rats [2], the Antianxiety/abuse liability is given as 5. In addition, in the series on male Wistar rats (setting [4]), the “Open Entries” value is on record as 4.83, the “% Open Time” value worked out at 46.33% and the “% Open Entries” value worked out at 47.00%. The “Closed Entries” value in the series on male Wistar rats (DZP 1.25 mg/kg ip, t test p = 0.292) stood at 5.50. Also, in the series on male Wistar rats (DZP 1.25 mg/kg ip, t test p = 0.670), the “Total Distance Travelled (m)” value is recorded as 8.59 m. In addition, the “Total Entries” value with male Wistar rats (DZP 1.25 mg/kg ip, t test p = 0.745) is on record as 10.33. In addition, the “Time in open arms” value in the series on male Wistar rats (DZP 1.25 mg/kg ip, t test p = 0.052) was 104.17. In addition, the “Time in closed arms” value with male Wistar rats (DZP 1.25 mg/kg ip, t test p = 0.064) was found to be 129.50.
`C#Cc1ccc2c(c1)C(c1ccccc1F)=NC(C)c1c(C(=O)OCC)ncn1-2` (stereo not drawn) [SH-053-2′F-S—CH3, 8-Ethynyl-6-(2-fluorophenyl)-4-methyl-4H-2,5,10b-triaza-benzo[e]azulene-3-carboxylic acid ethyl ester]: the “Open Entries” value in the series on male Wistar rats (SH-053-2′F-S—CH3 10 mg/kg ip, t test p = 0.503) stood at 3.33. Further, the “Closed Entries” value in the series on male Wistar rats (SH-053-2′F-S—CH3 10 mg/kg ip, t test p ≦ 0.05) came to 4.67. Further, in the series on male Wistar rats (SH-053-2′F-S—CH3 10 mg/kg ip, t test p = 0.080), the “Total Distance Travelled (m)” value was determined as 6.91 m. Besides, in the series on male Wistar rats (SH-053-2′F-S—CH3 10 mg/kg ip, t test p = 0.239), the “Total Entries” value came to 8.00. Besides, the “% Open Time” value in the series on male Wistar rats (SH-053-2′F-S—CH3 10 mg/kg ip, t test p = 0.536) was determined as 25.00%. Also, the “% Open Entries” value in the series on male Wistar rats (SH-053-2′F-S—CH3 10 mg/kg ip, t test p = 0.147) was determined as 37.17%. Besides, the “Time in open arms” value with male Wistar rats (SH-053-2′F-S—CH3 10 mg/kg ip, printed t test line doubtful) amounted to 60.50. Further, in the series on male Wistar rats (SH-053-2′F-S—CH3 10 mg/kg ip, t test p = 0.586), the “Time in closed arms” value stood at 183.33.

These data come from patent publication US7618958B2, “Stereospecific anxiolytic and anticonvulsant agents with reduced muscle-relaxant, sedative-hypnotic and ataxic effects” (WISYS Technology Foundation, Inc., priority 2004, dated 2009).
